Reference: patent publication US20240075088A1, “BIOACTIVE EXTRACTION METHOD” (Performance Labs Pte. Ltd., priority 2022, published 2024)

Assay: DPPH radicals scavenging capacity assay
Type: biochemical
Protocol: DPPH radicals scavenging capacity assay: The ability of the plant extract to scavenge DPPH free radicals was assessed by using the method described by Takao et al. (Takao et al., 1994).
The stock solution of the plant extract was prepared in methanol to achieve the concentration of 2000 μg/ml. Further, two-fold dilutions were made to obtain concentrations of 1000, 500, 250, 125, 62.5, 31.25, 15.62 μg/ml. Diluted solutions of extract (2 ml each) were mixed with 2 ml of DPPH methanol solution (80 μg/ml). After 30 min in darkness at room temperature, the absorbance was read in a spectrophotometer at 517 nm. The control samples consisted of 2 ml of methanol added to 2 ml of DPPH solution. Caffeoylquinic acid and ascorbic acid was used as a positive control. The experiment was performed in triplicate. Scavenging activity is expressed as the inhibition percentage calculated using the following equation: Scavenging activity (%)=100×[Acontrol−Asample)/Acontrol)], where Acontrol is the absorbance of the control and Asample is the absorbance of the extract.
It was obtained from the graph of scavenging activity (%) versus concentration of samples. Low IC50 value indicates strong ability of the extract to act as DPPH scavenger.
To evaluate the antioxidant activity of different fractions, an assay method based on the reduction of DPPH was performed.

| DPPH antioxidant assay IC50 (concentration at which 50% of DPPH radicals were scavenged, DPPH methanol solution 80 μg/ml, 30 min in darkness, absorbance 517 nm, triplicate) [µg/mL] | Structure (SMILES) | antioxidant activity (DPPH), conclusion in words (inferred from comparison of the 20% and 70% ethanol fractions) |
| --- | --- | --- |
| 59.4 | O=C1O[C@H]([C@@H](O)CO)C(O)=C1O [Ascorbic Acid, ascorbic acid] |  |
|  | Cn1c(=O)c2c(ncn2C)n(C)c1=O [caffeine] | did not contribute to antioxidant activity |
